The values below come from US10150760B2, “Compounds for use in preparing heterocyclic triazole agonists of the APJ receptor” (AMGEN INC., priority 2016, dated 2018).

What is called EC50 is the concentration giving half of the maximal effect.

The target in the test is human APJ receptor (Homo sapiens (Human), UniProt P35414). The test can be described thus: [35S]GTPγS binding assay on membranes from CHO cells stably expressing human APJ receptor. Type of test: biochemical. The conditions noted are these: read-out: Activity hAPJ SPA EC50 IP. The method in brief: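 Agonist-driven [35S]GTPγS (0.2 nM) binding was measured over 90 min at room temperature on human APJ-expressing CHO membranes with bead capture, in buffer containing 3 μM GDP, 200 mM NaCl and 5 mM MgCl2 (pH 7.5). Excess unlabelled GTPγS (100 μM) gave nonspecific signal; EC50 from non-linear fits.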
human APJ receptor, sequence (P35414 whole entry): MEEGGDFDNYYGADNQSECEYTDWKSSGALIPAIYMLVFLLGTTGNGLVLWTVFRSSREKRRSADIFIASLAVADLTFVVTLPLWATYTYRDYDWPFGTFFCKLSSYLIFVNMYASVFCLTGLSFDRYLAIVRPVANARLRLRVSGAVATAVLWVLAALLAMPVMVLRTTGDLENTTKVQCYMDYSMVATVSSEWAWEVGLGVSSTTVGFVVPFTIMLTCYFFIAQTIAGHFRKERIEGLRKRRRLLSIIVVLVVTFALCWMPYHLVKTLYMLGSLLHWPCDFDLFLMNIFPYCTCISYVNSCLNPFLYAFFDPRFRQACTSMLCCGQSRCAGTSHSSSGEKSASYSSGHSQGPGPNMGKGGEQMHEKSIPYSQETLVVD
A general note: GTPγS resists hydrolysis and so accumulates on activated G proteins.
In the case of `COCC(COC)n1c(NS(=O)(=O)[C@@H](C)[C@@H](OC(C)C)c2ncc(Cl)cn2)nnc1[C@@H]1COCCO1` (single isomer, unassigned) [Example 356.0, (1S,2S)-1-(5-chloro-2-pyrimidinyl)-N-(4-(1,3-dimethoxy-2-propanyl)-5-((2R)-1,4-dioxan-2-yl)-4H-1,2,4-triazol-3-yl)-1-(2-propanyloxy)-2-propanesulfonamide or (1S,2S)-1-(5-chloro-2-pyrimidinyl)-N-(4-(1,3-dimethoxy-2-propanyl)-5-((2S)-1,4-dioxan-2-yl)-4H-1,2,4-triazol-3-yl)-1-(2-propanyloxy)-2-propanesulfonamide], the EC50 is 26 nM. Regarding `COCC(COC)n1c(NS(=O)(=O)[C@@H](C)[C@@H](OC(C)C)c2ncc(Cl)cn2)nnc1[C@@H]1COCCO1` (single isomer, unassigned) [Example 357.0, (1S,2S)-1-(5-chloro-2-pyrimidinyl)-N-(4-(1,3-dimethoxy-2-propanyl)-5-((2R)-1,4-dioxan-2-yl)-4H-1,2,4-triazol-3-yl)-1-(2-propanyloxy)-2-propanesulfonamide or (1S,2S)-1-(5-chloro-2-pyrimidinyl)-N-(4-(1,3-dimethoxy-2-propanyl)-5-((2S)-1,4-dioxan-2-yl)-4H-1,2,4-triazol-3-yl)-1-(2-propanyloxy)-2-propanesulfonamide], the concentration for a half-maximal effect (EC50) was 280 nM. Regarding `COc1ncnc(OC)c1-n1c(NS(=O)(=O)[C@@H](C)[C@H](C)c2ccc(C#N)cn2)nnc1[C@H]1CCOC1` (single isomer, unassigned) [Example 382.0, (2S,3R)-3-(5-cyano-2-pyridinyl)-N-(4-(4,6-dimethoxy-5-pyrimidinyl)-5-((3R)-tetrahydro-3-furanyl)-4H-1,2,4-triazol-3-yl)-2-butanesulfonamide or (2S,3R)-3-(5-cyano-2-pyridinyl)-N-(4-(4,6-dimethoxy-5-pyrimidinyl)-5-((3S)-tetrahydro-3-furanyl)-4H-1,2,4-triazol-3-yl)-2-butanesulfonamide], the concentration for a half-maximal effect (EC50) stood at 270 nM.

For the compound `COc1ncnc(OC)c1-n1c(NS(=O)(=O)[C@@H](C)[C@H](C)c2ccc(C#N)cn2)nnc1[C@H]1CCOC1` (single isomer, unassigned) [Example 383.0, (2S,3R)-3-(5-cyano-2-pyridinyl)-N-(4-(4,6-dimethoxy-5-pyrimidinyl)-5-((3R)-tetrahydro-3-furanyl)-4H-1,2,4-triazol-3-yl)-2-butanesulfonamide or (2S,3R)-3-(5-cyano-2-pyridinyl)-N-(4-(4,6-dimethoxy-5-pyrimidinyl)-5-((3S)-tetrahydro-3-furanyl)-4H-1,2,4-triazol-3-yl)-2-butanesulfonamide], the EC50 was found to be 680 nM.

Take `COc1cccc(OC)c1-n1c(NS(=O)(=O)CCc2ncc(Cl)cn2)nnc1[C@H]1CCOC1` (single isomer, unassigned) [Example 390.0]: the concentration for a half-maximal effect (EC50) is 330 nM. The value for `COc1cccc(OC)c1-n1c(NS(=O)(=O)[C@@H](C)[C@H](C)c2ncc(Cl)cn2)nnc1[C@@H]1COC(C)(C)C1` (single isomer, unassigned) [Example 393.0, (2S,3R)-3-(5-chloro-2-pyrimidinyl)-N-(4-(2,6-dimethoxyphenyl)-5-((3R)-5,5-dimethyltetrahydro-3-furanyl)-4H-1,2,4-triazol-3-yl)-2-butanesulfonamide or (2S,3R)-3-(5-chloro-2-pyrimidinyl)-N-(4-(2,6-dimethoxyphenyl)-5-((3S)-5,5-dimethyltetrahydro-3-furanyl)-4H-1,2,4-triazol-3-yl)-2-butanesulfonamide] was 18 nM; that for `COc1cccc(OC)c1-n1c(NS(=O)(=O)[C@@H](C)[C@H](C)c2ncc(Cl)cn2)nnc1[C@@H]1COC(C)(C)C1` (single isomer, unassigned) [Example 394.0, (2S,3R)-3-(5-chloro-2-pyrimidinyl)-N-(4-(2,6-dimethoxyphenyl)-5-((3R)-5,5-dimethyltetrahydro-3-furanyl)-4H-1,2,4-triazol-3-yl)-2-butanesulfonamide or (2S,3R)-3-(5-chloro-2-pyrimidinyl)-N-(4-(2,6-dimethoxyphenyl)-5-((3S)-5,5-dimethyltetrahydro-3-furanyl)-4H-1,2,4-triazol-3-yl)-2-butanesulfonamide] was 20 nM. `COc1cccc(OC)c1-n1c(NS(=O)(=O)[C@@H](C)[C@H](C)c2ncc(F)cn2)nnc1[C@@H]1COC(C)(C)C1` (single isomer, unassigned) [Example 395.0, (2S,3R)-N-(4-(2,6-dimethoxyphenyl)-5-((3R)-5,5-dimethyltetrahydro-3-furanyl)-4H-1,2,4-triazol-3-yl)-3-(5-fluoro-2-pyrimidinyl)-2-butanesulfonamide or (2S,3R)-N-(4-(2,6-dimethoxyphenyl)-5-((3S)-5,5-dimethyltetrahydro-3-furanyl)-4H-1,2,4-triazol-3-yl)-3-(5-fluoro-2-pyrimidinyl)-2-butanesulfonamide]: the concentration giving a half-maximal response (EC50) was determined as 67 nM.

As to `COc1cccc(OC)c1-n1c(NS(=O)(=O)[C@@H](C)[C@H](C)c2ncc(F)cn2)nnc1[C@@H]1COC(C)(C)C1` (single isomer, unassigned) [Example 396.0, (2S,3R)-N-(4-(2,6-dimethoxyphenyl)-5-((3R)-5,5-dimethyltetrahydro-3-furanyl)-4H-1,2,4-triazol-3-yl)-3-(5-fluoro-2-pyrimidinyl)-2-butanesulfonamide or (2S,3R)-N-(4-(2,6-dimethoxyphenyl)-5-((3S)-5,5-dimethyltetrahydro-3-furanyl)-4H-1,2,4-triazol-3-yl)-3-(5-fluoro-2-pyrimidinyl)-2-butanesulfonamide], the EC50 was found to be 58 nM. For `COc1cccc(OC)c1-n1c(NS(=O)(=O)[C@@H](C)[C@H](OC)c2ncc(Cl)cn2)nnc1[C@H]1CCC(=O)N1` (single isomer, unassigned) [Example 397.0, (1R,2S)-1-(5-chloro-2-pyrimidinyl)-N-(4-(2,6-dimethoxyphenyl)-5-((2R)-5-oxo-2-pyrrolidinyl)-4H-1,2,4-triazol-3-yl)-1-methoxy-2-propanesulfonamide or (1R,2S)-1-(5-chloro-2-pyrimidinyl)-N-(4-(2,6-dimethoxyphenyl)-5-((2S)-5-oxo-2-pyrrolidinyl)-4H-1,2,4-triazol-3-yl)-1-methoxy-2-propanesulfonamide] the value was 160 nM; for `COc1cccc(OC)c1-n1c(NS(=O)(=O)[C@@H](C)[C@H](OC)c2ncc(Cl)cn2)nnc1[C@H]1CCC(=O)N1` (single isomer, unassigned) [Example 398.0, (1R,2S)-1-(5-chloro-2-pyrimidinyl)-N-(4-(2,6-dimethoxyphenyl)-5-((2R)-5-oxo-2-pyrrolidinyl)-4H-1,2,4-triazol-3-yl)-1-methoxy-2-propanesulfonamide or (1R,2S)-1-(5-chloro-2-pyrimidinyl)-N-(4-(2,6-dimethoxyphenyl)-5-((2S)-5-oxo-2-pyrrolidinyl)-4H-1,2,4-triazol-3-yl)-1-methoxy-2-propanesulfonamide], 560 nM.
